From publication PMC2556223 (Journal of biomolecular screening, 2008)

Tests used:
MV-AII-5 = assay: Dose-response CPE assay against AS-136A-adapted MV variant; details: read-out: EC50 (MV-AII-5); MV-Alaska variant adapted to grow in presence of RdRp inhibitor AS-136A; highest concentration assessed 37.5 μM
HPIV3 = assay: Dose-response CPE assay, Vero cells; format: cell-based, human parainfluenzavirus type 3; details: Vero cells, highest concentration assessed 37.5 μM; for EC50: read-out: EC50 (HPIV3)
cells = assay: Quantitative cytotoxicity assay; format: cell-based; details: for CC50: 24 h, absence of virus, highest concentration assessed 150 μM, averages of two experiments; for SI (CC50/EC50): specificity index, CC50 / EC50 against MV-Alaska
MV-Ibd = assay: Dose-response CPE assay against AS-48-resistant MV strain; details: strain naturally resistant to MV fusion inhibitor AS-48; highest concentration assessed 37.5 μM
CDV-752 = assay: Dose-response CPE assay, Vero-dogSLAM cells; format: cell-based, canine distemper virus; details: Vero-dogSLAM cells, highest concentration assessed 37.5 μM; for EC50: read-out: EC50 (CDV-752)
MV-Alaska = assay: Dose-response curves based on suppression of viral CPE; format: cell-based, measles virus; details: biotesting of chemically re-synthesized compound; data not shown

CS(=O)(=O)N1CCc2cc(-c3csc(NC(=O)Cc4cccs4)n3)ccc21 [compound 846635]
EC50 (MV-AII-5): 3.7 ± 0.1 µM | EC50 (HPIV3) (HPIV3): no activity detected | CC50 (cells): ~150 µM | SI (CC50/EC50) (cells): 56 | EC50 (MV-Ibd) (MV-Ibd): no activity detected | EC50 (CDV-752) (CDV-752): no activity detected

CC1Cc2cc(-c3csc(NC(=O)Cc4cccs4)n3)ccc2N1S(C)(=O)=O (stereo not shown) [compound 852230]
EC50 (MV-AII-5): 4.5 ± 0.2 µM | EC50 (HPIV3) (HPIV3): no activity detected | CC50 (cells): ~150 µM | SI (CC50/EC50) (cells): 46 | EC50 (MV-Ibd) (MV-Ibd): no activity detected | EC50 (CDV-752) (CDV-752): no activity detected

COc1cccc(CNC(=O)c2cc3oc4ccccc4c3n2C)c1OC [compound 4242806]
EC50 (MV-AII-5): 2.1 ± 0.1 µM | EC50 (HPIV3): 2 ± 0.1 µM | CC50 (cells): 147 µM | SI (CC50/EC50) (cells): 105 | EC50 (CDV-752): 2.1 ± 0.1 µM

CSc1cccc(NC(=O)Cn2cccc2)c1 [compound 4245209]
EC50 (MV-AII-5): 14.3 ± 0.8 µM | EC50 (HPIV3) (HPIV3): no activity detected | EC50 (MV-Ibd) (MV-Ibd): no activity detected | EC50 (CDV-752): 31.1 µM

Cc1ccc2[nH]c(=O)c(N3CCOCC3)c(-c3ccccc3)c2c1 [compound 4259333]
EC50 (MV-AII-5): 4.3 ± 0.3 µM | EC50 (HPIV3) (HPIV3): no activity detected | CC50 (cells): 118 µM | SI (CC50/EC50) (cells): 36 | EC50 (CDV-752) (CDV-752): no activity detected

CSc1ccccc1NC(=O)Cn1c(-c2cscn2)nc2ccccc21 [compound 4261934]
EC50 (MV-AII-5): 3.9 ± 0.1 µM | EC50 (HPIV3) (HPIV3): no activity detected | CC50 (cells): > 150 µM | SI (CC50/EC50) (cells): >63 | EC50 (CDV-752) (CDV-752): no activity detected

CNC(=O)c1ccc(OCc2ccccc2)c(OC)c1 [compound 4265637]
EC50 (MV-AII-5): 4.7 ± 0.3 µM | EC50 (HPIV3) (HPIV3): no activity detected | CC50 (cells): > 150 µM | SI (CC50/EC50) (cells): >50 | EC50 (MV-Ibd) (MV-Ibd): no activity detected | EC50 (CDV-752): 6.7 ± 0.1 µM

CCOC(=O)Cn1c(-c2nonc2NC(=O)c2ccccc2F)nc2ccccc21 [compound 7973070]
EC50 (MV-AII-5): 2 ± 0.2 µM | EC50 (HPIV3): 1.9 ± 0.1 µM | CC50 (cells): ~150 µM | SI (CC50/EC50) (cells): 375 | EC50 (CDV-752): 1 ± 0.1 µM

CSc1nnc2c3ccccc3n(CCc3ccccc3)c2n1 [compound 7976354]
EC50 (MV-AII-5): 1 ± 0.1 µM | EC50 (HPIV3): 3.5 ± 0.1 µM | CC50 (cells): > 150 µM | SI (CC50/EC50) (cells): >33 | EC50 (CDV-752): 0.9 ± 0.1 µM

CS(=O)(=O)N1CCc2cc(-c3csc(NC(=O)Cc4ccccc4)n3)ccc21 [compound 14723513]
EC50 (MV-AII-5): 3.6 ± 0.2 µM | EC50 (HPIV3) (HPIV3): no activity detected | CC50 (cells): > 150 µM | SI (CC50/EC50) (cells): >41 | EC50 (MV-Ibd) (MV-Ibd): no activity detected | EC50 (CDV-752): 26.8 ± 8.7 µM

Cn1c(C(=O)NCc2ccccc2)cc2oc3ccccc3c21 [compound 14735307]
EC50 (MV-AII-5): 5.4 ± 1.6 µM | EC50 (HPIV3) (HPIV3): no activity detected | CC50 (cells): > 150 µM | EC50 (CDV-752) (CDV-752): no activity detected

CCN(CC)C(=O)N1c2ccccc2C=Cc2ccccc21 [compound 14740150]
EC50 (HPIV3): 3 ± 0.1 µM | CC50 (cells): > 150 µM | SI (CC50/EC50) (cells): >34 | EC50 (CDV-752): 1.9 ± 0.1 µM

CC(=O)/C(C#N)=C1\NC(=O)C(Cc2ccc(C)c(C)c2)S1 (stereo not shown) [compound 14741996]
EC50 (MV-AII-5): 7.7 ± 0.1 µM | EC50 (HPIV3): 3.9 ± 0.1 µM | CC50 (cells): > 150 µM | SI (CC50/EC50) (cells): >47 | EC50 (CDV-752): 4.2 ± 0.1 µM

C=CCn1c(SCC(=O)N2CC(=O)Nc3ccccc32)nc2scc(-c3ccccc3)c2c1=O [compound 14743644]
EC50 (MV-AII-5): 4.6 ± 0.1 µM | EC50 (HPIV3) (HPIV3): no activity detected | CC50 (cells): ~150 µM | SI (CC50/EC50) (cells): 56 | EC50 (CDV-752) (CDV-752): no activity detected

C#CCn1c(S(=O)(=O)Cc2ccc(F)cc2)nc(-c2ccccc2)c1-c1ccccc1 [compound 17409378]
EC50 (MV-AII-5): 1.4 ± 0.3 µM | EC50 (HPIV3): 1.7 ± 0.2 µM | CC50 (cells): 26 µM | SI (CC50/EC50) (cells): 37

COc1ccc([N+](=O)[O-])cc1NC(=O)CCc1ccccc1 [compound 17416393]
EC50 (MV-AII-5): 2.9 ± 0.5 µM | EC50 (HPIV3) (HPIV3): no activity detected | CC50 (cells): > 150 µM | SI (CC50/EC50) (cells): >100 | EC50 (MV-Ibd) (MV-Ibd): no activity detected | EC50 (CDV-752): 12.9 ± 0.7 µM

O=C(/C=C/c1cccs1)Nc1cccc(NC(=O)/C=C/c2cccs2)n1 [compound 17433375]
EC50 (MV-AII-5): 3.2 ± 0.1 µM | EC50 (HPIV3) (HPIV3): no activity detected | CC50 (cells): 70 µM | SI (CC50/EC50) (cells): 19 | EC50 (CDV-752) (CDV-752): no activity detected

CC(=O)Nc1ccc(Nc2cc(C)nc3c(-c4ccccc4)cnn23)cc1 [compound 17505573]
EC50 (MV-AII-5): 1.6 ± 0.1 µM | EC50 (HPIV3) (HPIV3): no activity detected | CC50 (cells): 54 µM | SI (CC50/EC50) (cells): 14 | EC50 (MV-Ibd) (MV-Ibd): no activity detected | EC50 (CDV-752) (CDV-752): no activity detected

O=C(Cc1cccs1)Nc1cc(SCCO)cc([N+](=O)[O-])c1 [compound 22402685]
EC50 (MV-AII-5): 1.6 ± 0.2 µM | EC50 (HPIV3) (HPIV3): no activity detected | CC50 (cells): > 150 µM | SI (CC50/EC50) (cells): >79 | EC50 (MV-Ibd) (MV-Ibd): no activity detected | EC50 (CDV-752): 2.1 ± 0.3 µM

Cc1cccc(-n2c(SCC(=O)Nc3ncc(Cl)cc3Cl)nc3ccccc32)c1 [compound 22404943]
EC50 (MV-AII-5): 0.5 ± 0.1 µM | EC50 (HPIV3): 0.6 ± 0.1 µM | CC50 (cells): > 150 µM | SI (CC50/EC50) (cells): >214 | EC50 (CDV-752): 0.4 ± 0.1 µM

C=CCN=c1scc(-c2ccccc2)n1/N=C/c1ccccn1 [compound 22406106]
CC50 (cells): 139 µM | SI (CC50/EC50) (cells): 116

CCN=c1scc(-c2ccccc2)n1/N=C/c1ccccn1 [compound 22406746]
EC50 (HPIV3): 2 ± 0.1 µM | CC50 (cells): ~150 µM | SI (CC50/EC50) (cells): 37 | EC50 (CDV-752): 2.3 ± 0.2 µM

COc1ccc(-n2c(SC(C)C(=O)Nc3ncc(Cl)cc3Cl)nc3ccccc32)cc1 (stereo not shown) [compound 22407448]
EC50 (MV-AII-5): 0.1 µM | EC50 (HPIV3): 0.2 ± 0.1 µM | CC50 (cells): > 150 µM | Activity of re-synthesized compound versus original library substance (MV-Alaska): essentially identical to the original substances stored in the library

O=C(CSc1nc2ccccc2n1-c1ccccc1)Nc1ncc(Cl)cc1Cl [compound 22407466]
EC50 (HPIV3): 1 ± 0.1 µM | CC50 (cells): > 150 µM | SI (CC50/EC50) (cells): >71 | EC50 (CDV-752): 0.9 ± 0.1 µM

CC(=O)Nc1ccc(-c2csc(NC(=O)CCCc3cccs3)n2)cc1 [compound 22408576]
EC50 (MV-AII-5): 2 ± 0.1 µM | EC50 (HPIV3) (HPIV3): no activity detected | CC50 (cells): > 150 µM | SI (CC50/EC50) (cells): >65 | EC50 (CDV-752) (CDV-752): no activity detected

CC(=O)Nc1ccc(-c2csc(NC(=O)C3CCN(S(=O)(=O)c4cccs4)CC3)n2)cc1 [compound 22410899]
EC50 (MV-AII-5): 3.8 ± 0.3 µM | EC50 (HPIV3) (HPIV3): no activity detected | CC50 (cells): > 150 µM | SI (CC50/EC50) (cells): >39 | EC50 (CDV-752) (CDV-752): no activity detected

Cc1cccc2c(=O)cc(C)n(Cc3ccccc3)c12 [compound 22415156]
EC50 (MV-AII-5): 2.4 ± 0.2 µM | EC50 (HPIV3) (HPIV3): no activity detected | CC50 (cells): > 150 µM | SI (CC50/EC50) (cells): >42 | EC50 (CDV-752): 11 ± 0.1 µM

COc1cc(/C=C/C(=O)N2CCOCC2)ccc1OCc1ccccc1 [compound 22415419]
EC50 (MV-AII-5): 2.2 ± 0.3 µM | EC50 (HPIV3) (HPIV3): no activity detected | CC50 (cells): > 150 µM | SI (CC50/EC50) (cells): >33 | EC50 (MV-Ibd) (MV-Ibd): no activity detected | EC50 (CDV-752): 5 ± 0.2 µM

COc1cc(/C=C/C(=O)NC(C)C)ccc1OCc1ccccc1 [compound 22415706]
EC50 (MV-AII-5): 4.1 µM | EC50 (HPIV3) (HPIV3): no activity detected | EC50 (MV-Ibd) (MV-Ibd): no activity detected | EC50 (CDV-752): 12.9 µM
